According to US9701677B2, “Fused pyrimidine compounds” (Gilead Sciences, Inc., priority 2014, dated 2017):
Like-named read-outs stand apart in the source and are kept apart here.

Assays:
Format in all cases: cell-based
HIV-1 HBX2 (wild type) = test: High throughput cytopathic effect assay in MT-4 cells, wild type HIV-1
Source text: (§1) Compounds were screened in a miniaturized, high throughput cytopathic effect assay for activity against HIV-1 HBX2 (wild type) and HIV-1 reverse transcriptase mutants K103N and Y181C. In Tables 1 and 2 below, “w.t.” refers to results of the tested compounds run with the wildtype 1 and “w.t. assay 2” refers results of the tested compounds run with the wildtype on the same day as the testing of the compounds with the mutants. Thus, “w.t. assay 2” was run under the same conditions as the testing of the compounds with the mutants and provides a direct comparison with the results from the testing with the mutants.
(§2) Ten-point serial dilutions of compounds with half-log step size were generated in DMSO. AZT (5 μM) was used as the positive control and DMSO as the negative control. The Echo acoustic dispenser was used to deliver 200 nL of serially diluted compound into sterile 384 well tissue culture assay plates. Two million MT-4 cells were incubated with each of the 3 viruses at MOI of 0.0005 in separate 1 mL infection tubes for 1 hour at 37° C. The cells were diluted in cell culture medium (RPMI+10% FBS) to 50,000 cells/mL. The infected cells were added to 384 well assay plates containing serially dilute compounds. Assay plates were incubated for 5 days in a humidified incubator set at 37° C. and 5% CO2. To measure the cytopathic effect of HIV, 40 μL Cell TiterGlo was added to each well and the resulting luminescence signal is read with the Envision plate reader (Perkin Elmer). Data were normalized to positive and negative controls in each plate and expressed as % CPE Protection. […]

[1] = test system: HIV-1 reverse transcriptase mutant Y181C; test: High throughput cytopathic effect assay in MT-4 cells, Y181C mutant; details: for EC50: Human immunodeficiency virus 1, MT4, 120 h, read-out: MT4 EC50 (nM) against Y181C; for FC against mutant Y181C: fold change of EC50, Y181C versus w.t. assay 2
Source text: as §1, §2

[2] = test system: HIV-1 reverse transcriptase mutant K103N; test: High throughput cytopathic effect assay in MT-4 cells, K103N mutant; details: for EC50: Human immunodeficiency virus 1, MT4, 120 h, read-out: MT4 EC50 (nM) against K103N; for FC against mutant K103N: fold change of EC50, K103N versus w.t. assay 2
Source text: as §1, §2

hERG channels = molecular target: T1, hERG channels (Homo sapiens, UniProt Q12809); test: hERG assay, whole cell recordings in CHO cell line stably expressing hERG channels; details: CHO cells expressing hERG, tail current, Table 3
T1 construct: host or cells: CHO cell line stably expressing hERG
T1 sequence (Q12809 whole entry): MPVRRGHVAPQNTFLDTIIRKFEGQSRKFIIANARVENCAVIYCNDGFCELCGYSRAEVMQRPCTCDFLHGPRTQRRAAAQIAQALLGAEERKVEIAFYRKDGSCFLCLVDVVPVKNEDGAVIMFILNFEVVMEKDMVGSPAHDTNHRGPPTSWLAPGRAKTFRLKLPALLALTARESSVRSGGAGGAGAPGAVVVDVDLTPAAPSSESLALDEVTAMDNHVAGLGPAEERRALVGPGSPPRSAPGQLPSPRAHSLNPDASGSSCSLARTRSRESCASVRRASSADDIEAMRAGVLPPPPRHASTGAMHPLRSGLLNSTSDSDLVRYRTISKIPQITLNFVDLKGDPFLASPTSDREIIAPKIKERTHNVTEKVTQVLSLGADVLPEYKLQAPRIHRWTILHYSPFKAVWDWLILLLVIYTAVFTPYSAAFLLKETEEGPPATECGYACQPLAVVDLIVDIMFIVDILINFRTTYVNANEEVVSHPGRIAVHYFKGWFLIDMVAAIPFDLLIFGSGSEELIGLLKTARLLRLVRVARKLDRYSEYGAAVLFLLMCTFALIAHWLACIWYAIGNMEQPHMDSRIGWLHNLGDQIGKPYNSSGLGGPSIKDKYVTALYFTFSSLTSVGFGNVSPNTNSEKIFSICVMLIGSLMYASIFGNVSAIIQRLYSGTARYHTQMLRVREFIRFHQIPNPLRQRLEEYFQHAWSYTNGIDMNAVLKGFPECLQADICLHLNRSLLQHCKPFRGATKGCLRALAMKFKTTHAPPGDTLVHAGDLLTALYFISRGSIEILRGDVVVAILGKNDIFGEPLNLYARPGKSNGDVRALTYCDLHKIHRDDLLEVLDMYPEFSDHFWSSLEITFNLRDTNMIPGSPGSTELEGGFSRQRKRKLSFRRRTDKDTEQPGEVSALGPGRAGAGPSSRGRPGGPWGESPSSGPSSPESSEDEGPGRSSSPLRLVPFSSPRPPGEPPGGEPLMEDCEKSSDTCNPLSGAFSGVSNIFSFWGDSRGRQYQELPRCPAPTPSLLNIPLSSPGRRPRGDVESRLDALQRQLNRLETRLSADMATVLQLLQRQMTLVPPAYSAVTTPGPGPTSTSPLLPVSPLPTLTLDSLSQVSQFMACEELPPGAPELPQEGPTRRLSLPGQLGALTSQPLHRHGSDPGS
Description: Cells were cultured in DMEM/F12 containing 10% FBS, 1% penicillin/streptomycin and 500 μg/ml G418. Before testing, cells were harvested using Accumax (Innovative Cell Technologies).
Cells were voltage clamped at a holding potential of −80 mV. The hERG current was then activated by a depolarizing step to −50 mV for 300 ms. This first step at −50 mV was used as a baseline for measuring peak amplitude of the tail current. Next, a voltage step to +20 mV was applied for 5 s to activate the channels. Finally, a step back to −50 mV for 5 s removed activation and the deactivating tail current was recorded.
Solutions were mixed by sonication for 20 min, followed by vigorous vortexing. Prior to testing, compounds were diluted to test concentrations in glass vials using External Solution. Dilutions were prepared no longer than 20 min prior to use.
External solution containing 0.1% DMSO (vehicle) was applied to the cells to establish a baseline. […] Test article solutions were added to cells in 4 separate additions. Cells were kept in test solution until effect of the test article reached steady state, to a maximum of 12 min. Next, 1 μM cisapride (positive control) was added. Finally, washout with External Solution was performed until the recovery current reached steady state.

[3] = Human immunodeficiency virus 1, MT4, 120 h, MT-4 cells, HIV-1 wild type, 5 days, CPE protection (Cell TiterGlo), read-out: MT4 EC50 (nM) against w.t.
[4] = Human immunodeficiency virus 1, MT4, read-out: MT4 EC50 (nM) against w.t. assay 2

Compound: Cc1cc(/C=C/C#N)cc(C)c1-c1nccc2c(N)nc(Nc3ccc(C#N)cc3)nc12 [Compound 1, (E)-4-((4-Amino-8-(4-(2-cyanovinyl)-2,6-dimethylphenyl)pyrido[3,4-d]pyrimidin-2-yl)amino)benzonitrile]
- EC50 (HIV-1 HBX2 (wild type); [3]): 2.1 nM
- EC50 (HIV-1 HBX2 (wild type); [4]): 1.4 nM
- EC50 [1]: 5.5 nM
- FC against mutant Y181C [1]: 4.0
- EC50 [2]: 2.3 nM
- FC against mutant K103N [2]: 1.7

Compound: Cc1cc(/C=C/C#N)cc(C)c1-c1cncc2c(N)nc(Nc3ccc(C#N)cc3)nc12 [Compound 2, (E)-4-((4-Amino-8-(4-(2-cyanovinyl)-2,6-dimethylphenyl)pyrido[4,3-d]pyrimidin-2-yl)amino)benzonitrile]
- EC50 (HIV-1 HBX2 (wild type); [3]): 6.1 nM
- EC50 (HIV-1 HBX2 (wild type); [4]): 12.6 nM
- EC50 [1]: 40.4 nM
- FC against mutant Y181C [1]: 3.2
- IC50 (hERG channels): 1700 nM
- EC50 [2]: 14.3 nM
- FC against mutant K103N [2]: 1.1

Compound: Cc1cc(/C=C/C#N)cc(C)c1-c1ccnc2c(N)nc(Nc3ccc(C#N)cc3)nc12 [Compound 3, (E)-4-((4-amino-8-(4-(2-cyanovinyl)-2,6-dimethylphenyl)pyrido[3,2-d]pyrimidin-2-yl)amino)benzonitrile]
- EC50 (HIV-1 HBX2 (wild type); [3]): 4.6 nM
